This passage reports IC50 results from patent US20130131018A1, “SUBSTITUTED ISOQUINOLINES AND THEIR USE AS TUBULIN POLYMERIZATION INHIBITORS” (Exonhit S.A., priority 2010, published 2013).

Structures can show the parent of a compound that is named as a salt.

In this test the test system is K562 cell line. The experiment in a line: MTT assay: cytotoxicity against the K562 cell line. It counts as cell-based. Particulars: Homo sapiens, K562 cells, 72 h, growth inhibition. On the procedure:
Assessment of Cell Viability via MTT Assay: Cytotoxicity of compounds against the K562 cell line was assessed using the [3-(4,5-dimethylthiazol-2-yl)-2,5-diphenyl tetrazolium bromide] (MTT) assay. Fifteen thousand tumor cells were seeded into wells of flat-bottomed 96-well plates. An amount of 2 μL of a dilution series of each compound dissolved in DMSO was added to 198 μL of appropriate growth medium at three replicates per concentration and the plates were incubated in a 5% CO2 incubator at 37° C. After 72 h, the number of metabolically active cells was determined by MTT assay. Absorbance of each well was measured at 550 nm on a Tecan Sunrise reader. Dose-response curves for growth inhibition were generated as a percentage of untreated control. IC50 was determined by nonlinear regression (Prism, Graph Pad Software, Inc.).
For orientation: Tetrazolium dyes change colour on reduction, which living cells bring about.
A word on the IC50: it is the concentration that inhibits the measured activity by half. Read a high IC50 as weaker potency in that assay. For `COc1ccc2c(Cc3cc(OC)c(OC)c(OC)c3)cncc2c1` [Compound 27, 4-(3,4,5-Trimethoxybenzyl)-7-methoxyisoquinoline hydrochloride], the 50% inhibitory concentration (IC50) was 864 nM.
Regarding `CCOc1ccc2c(Cc3cc(OC)c(OC)c(OC)c3)cncc2c1N=[N+]=[N-]` [Compound 107, 8-Azido-7-ethoxy-4-(3,4,5-trimethoxybenzyl)isoquinoline], half-maximal inhibition (IC50) was put at 575 nM.
For `C=C(c1cc(OC)c(OC)c(OC)c1)c1cncc2c(O)c(OCC)ccc12` [Compound 95, 7-Ethoxy-4-(1-(3,4,5-trimethoxyphenyl)vinyl)isoquinolin-8-ol hydrochloride] the value was 49.7 nM; for `CCOc1ccc2c(Cc3cc(OC)c(OCCOC)c(OC)c3)cncc2c1O` [Compound 22, 4-(4-(2-Methoxyethoxy)-3,5-dimethoxybenzyl)-7-ethoxyisoquinolin-8-ol hydrochloride], 142 nM.
The compound `CCOc1ccc2c(Cc3cc(OC)c(OCC(C)(C)C)c(OC)c3)cncc2c1O` [Compound 39, 4-(3,5-Dimethoxy-4-(neopentyloxy)benzyl)-7-ethoxyisoquinolin-8-ol hydrochloride] displayed an IC50 of 400 nM.
For `CCOc1ccc2c(Cc3cc(OC)c(OC)c(OC)c3)cncc2c1` [Compound 16, 4-(3,4,5-Trimethoxybenzyl)-7-ethoxyisoquinoline hydrochloride] the value was 435 nM.
Consider `CCOc1ccc2c(Cc3cc(OC)c(OCC#N)c(OC)c3)cncc2c1O` [Compound 50, 2-(4-((7-Ethoxy-8-hydroxyisoquinolin-4-yl)methyl)-2,6-dimethoxyphenoxy)acetonitrile hydrochloride], for which the 50% inhibitory concentration (IC50) was found to be 69.8 nM.
`CCOc1ccc2c(Cc3cc(I)c(OC)c(OC)c3)cncc2c1O` [Compound 72, 7-Ethoxy-4-(3-iodo-4,5-dimethoxybenzyl)isoquinolin-8-ol hydrochloride] gave an IC50 of 18.3 nM.
The compound `CCOc1ccc2c(C(=O)c3cc(Br)c(OC)c(OC)c3)cncc2c1O` [Compound 116, (3-Bromo-4,5-dimethoxyphenyl)(7-ethoxy-8-hydroxyisoquinolin-4-yl)methanone hydrochloride] came in with a half-inhibitory concentration (IC50) of 86.9 nM.
The compound `CCOc1ccc2c(C(=O)c3cc(OC)c(OC)c(OC)c3)cncc2c1NS(=O)(=O)NC(=O)OC(C)(C)C` [Compound 104, tert-Butyl N-(7-ethoxy-4-(3,4,5-trimethoxybenzoyl)isoquinolin-8-yl)sulfamoylcarbamate] gave an IC50 of 38.8 nM.
Compound `O=C(Nc1ccncc1)C(=O)c1cn(Cc2ccc(Cl)cc2)c2ccccc12` [Indibulin, reference compound] yielded an IC50 of 197 nM.
`CCOc1ccc2c(Cc3cc(OC)c(OCC(CC)CC)c(OC)c3)cncc2c1O` [Compound 37, 7-Ethoxy-4-(4-(2-ethylbutoxy)-3,5-dimethoxybenzyl)isoquinolin-8-ol hydrochloride] registered a half-maximal inhibitory concentration (IC50) of 899 nM.
With `CCCCCOc1c(OC)cc(Cc2cncc3c(O)c(OCC)ccc23)cc1OC` [Compound 63, 4-(3,5-Dimethoxy-4-(pentyloxy)benzyl)-7-ethoxyisoquinolin-8-ol hydrochloride], the midpoint of inhibition, the IC50, lay at 213 nM.
Turning to `CCOc1ccc2c(Cc3cc(OC)c(Nc4ccccc4)c(OC)c3)cncc2c1O` [Compound 52, 4-(3,5-Dimethoxy-4-(phenylamino)benzyl)-7-ethoxyisoquinolin-8-ol hydrochloride], the IC50 worked out at 118 nM.
For `CCOc1ccc2c(C(=O)c3cc(OC)c(OCC)c(OC)c3)cncc2c1OCc1ccccc1` [Compound 55, (8-(Benzyloxy)-7-ethoxyisoquinolin-4-yl)(4-ethoxy-3,5-dimethoxyphenyl)methanone], the concentration for half-maximal inhibition (IC50) came out at 422 nM.
The compound `CCOc1ccc2c(Cc3cc(OC)c(OC)c(OC)c3)cncc2c1Cl` [Compound 106, 8-Chloro-7-ethoxy-4-(3,4,5-trimethoxybenzyl)isoquinoline hydrochloride] displayed an IC50 of 885 nM.
Take `CCOc1ccc2c(Cc3cc(OC)c(OC)c([N+](=O)[O-])c3)cncc2c1O` [Compound 103, 4-(3,4-Dimethoxy-5-nitrobenzyl)-7-ethoxyisoquinolin-8-ol hydrochloride]: half-maximal inhibition (IC50) was put at 138 nM.
As to `CCOc1ccc2c(Cc3cc(OC)c(OCC(=O)OC)c(OC)c3)cncc2c1O` [Compound 48, Methyl 2-(4-((7-ethoxy-8-hydroxyisoquinolin-4-yl)methyl)-2,6-dimethoxyphenoxy)acetate hydrochloride], the 50% inhibitory concentration (IC50) was 812 nM.
In turn, `CCOc1ccc2c(C(=O)c3cc(OC)c(OC)c(OC)c3)cncc2c1N=[N+]=[N-]` [Compound 108, 8-Azido-7-ethoxy-4-(3,4,5-trimethoxybenzoyl)isoquinoline] had a half-inhibitory concentration (IC50) of 74.8 nM.
For `CCOc1ccc2c(Cc3cc(Cl)c(OC)c(Cl)c3)cncc2c1O` [Compound 69, 4-(3,5-Dichloro-4-methoxybenzyl)-7-ethoxyisoquinolin-8-ol hydrochloride] the value was 238 nM; for `CCOc1ccc2c(Cc3cc(OC)c(OC)c(OC)c3)cncc2c1NC` [Compound 92, 7-Ethoxy-N-methyl-4-(3,4,5-trimethoxybenzyl)isoquinolin-8-amine dihydrochloride], 943 nM.
Then `CCOc1ccc2c(C(=O)c3cc(OC)c(OC)c(OC)c3)cncc2c1NC(=O)OCC(C)C` [Compound 113, Isobutyl (7-ethoxy-4-(3,4,5-trimethoxybenzoyl)isoquinolin-8-yl)carbamate hydrochloride], with 231 nM; and `CCOc1ccc2c(Cc3cc(Br)c(OCC)c(OC)c3)cncc2c1O` [Compound 77, 4-(3-Bromo-4-ethoxy-5-methoxybenzyl)-7-ethoxyisoquinolin-8-ol hydrochloride], with 48.6 nM; and `CCOc1ccc2c(C(=S)c3cc(OC)c(OC)c(OC)c3)cncc2c1` [Compound 42, (7-Ethoxyisoquinolin-4-yl)(3,4,5-trimethoxyphenyl)methanethione hydrochloride], with 60.7 nM.
Regarding `CCOc1ccc2c(Cc3cc(N)c(OCC)c(OC)c3)cncc2c1O` [Compound 75, 4-(3-Amino-4-ethoxy-5-methoxybenzyl)-7-ethoxyisoquinolin-8-ol hydrochloride], 236 nM corresponded to half-maximal inhibition (IC50).
Turning to `CCOc1ccc2c(Cc3cc(OC)c(OC)c(OC)c3Cl)cncc2c1O` [Compound 110, 4-(2-Chloro-3,4,5-trimethoxybenzyl)-7-ethoxyisoquinolin-8-ol hydrochloride], the IC50 worked out at 68 nM.
`CCOc1ccc2c(C(=O)c3cc(OC)c(OC)c(OC)c3)cncc2c1NC(C)=O` [Compound 111, N-(7-Ethoxy-4-(3,4,5-trimethoxybenzoyl)isoquinolin-8-yl)acetamide hydrochloride] gave an IC50 of 96.8 nM.
For `CCCOc1c(OC)cc(Cc2cncc3c(OC(=S)N(C)C)c(OCC)ccc23)cc1OC` [Compound 68, O-(4-(3,5-Dimethoxy-4-propoxybenzyl)-7-ethoxyisoquinolin-8-yl) dimethylcarbamothioate hydrochloride] the value was 152 nM; for `CCOc1ccc2c(Cc3cc(OC)c(OC)c(OC)c3)cncc2c1NS(=O)(=O)NC(=O)OC(C)(C)C` [Compound 7, tert-butyl N-(7-ethoxy-4-(3,4,5-trimethoxybenzyl)isoquinolin-8-yl)sulfamoylcarbamate], 147 nM.
Then `CCOc1ccc2c(Cc3cc(OC)c(OC)c(OCC(F)(F)F)c3)cncc2c1O` [Compound 87, 4-(3,4-Dimethoxy-5-(2,2,2-trifluoroethoxy)benzyl)-7-ethoxyisoquinolin-8-ol hydrochloride], with 254 nM.
Compound `CCOc1ccc2c(Cc3cc(OC)c(OCC4CCC4)c(OC)c3)cncc2c1O` [Compound 34, 4-(4-(Cyclobutylmethoxy)-3,5-dimethoxybenzyl)-7-ethoxyisoquinolin-8-ol hydrochloride] gave an IC50 of 65 nM.
For `CCOc1ccc2c(C(=O)c3cc(Br)c(OC)c(OC)c3)cncc2c1OC(C)=O` [Compound 115, 4-(3-Bromo-4,5-dimethoxybenzoyl)-7-ethoxyisoquinolin-8-yl acetate] the value was 20.8 nM; for `CCOc1ccc2c(C(=O)c3cc(OC)c(OCC)c(OC)c3)cncc2c1OC` [Compound 47, (4-Ethoxy-3,5-dimethoxyphenyl)-(7-ethoxy-8-methoxyisoquinolin-4-yl)-methanone hydrochloride], 129 nM; for `CCOc1ccc2c(C(=O)c3cc(OC)c(OC)c(OC)c3)cncc2c1OC(=O)C(C)(C)C` [Compound 109, 7-Ethoxy-4-(3,4,5-trimethoxybenzoyl)isoquinolin-8-yl pivalate], 67.9 nM.
For `CCOc1ccc2c(Cc3cc(OC)c(OC)c(OC)c3)cncc2c1NCC(=O)OC` [Compound 93, Methyl 2-(7-ethoxy-4-(3,4,5-trimethoxybenzyl)isoquinolin-8-ylamino)acetate dihydrochloride] the value was 334 nM; for `CCOc1ccc2c(C(=O)c3cc(OC)c(OCC(C)C)c(OC)c3)cncc2c1O` [Compound 79, (7-Ethoxy-8-hydroxyisoquinolin-4-yl)(4-isobutoxy-3,5-dimethoxyphenyl)methanone hydrochloride], 12.1 nM; for `CCOc1ccc2c(Cc3cc(OC)c(OCC)c(OC)c3)cncc2c1` [Compound 13, 7-Ethoxy-4-(4-ethoxy-3,5-dimethoxybenzyl)isoquinoline hydrochloride], 349 nM.
Then `CCOc1c(OC)cc(Cc2cncc3c(OC)c(OC)ccc23)cc1OC` [Compound 9, 4-(4-Ethoxy-3,5-dimethoxybenzyl)-7,8-dimethoxyisoquinoline hydrochloride], with 376 nM.
As for `CCOc1ccc2c(Cc3cc(I)c(OC)c(I)c3)cncc2c1O` [Compound 70, 4-(3,5-Diiodo-4-methoxybenzyl)-7-ethoxyisoquinolin-8-ol hydrochloride], 92.8 nM corresponded to half-maximal inhibition (IC50).
